e = 2'-O-(2-methoxyethyl) (MOE); d = 2'-deoxy (DNA)
What was measured:
Format in all cases: in vivo, mice
[1] = Plasma cholesterol and triglyceride levels, dose response (Example 9)
Protocol: (§1) Another group received subcutaneous injections of control oligonucleotide ISIS 141923 at a dose of 50 mg/kg/week for 6 weeks. One group of mice received subcutaneous injections of PBS for 6 weeks. The PBS-injected group served as the control group to which treatment groups were compared.
G. and Dyer, W. J. Can. J. Biochem. Physiol. 37: 911-917, 1959) and measured with an Olympus clinical analyzer (Hitachi Olympus AU400e, Melville, N.Y.). HDL and LDL cholesterol were individually measured by HPLC. Triglyceride levels were measured with the use of a commercially available triglyceride kit (DCL Triglyceride Reagent; Diagnostic Chemicals Ltd.). The results are presented in Tables 47-51 and are expressed in mg/dL.

[2] = Plasma glucose, dose response (Example 9)
Protocol: as §1
Plasma glucose values were determined using a Beckman Glucose Analyzer II (Beckman Coulter) by a glucose oxidase method (Lott, J. A. et al., Clin. Chem. 21: 1754-1760, 1975).

[3] = Plasma cholesterol and triglyceride levels in huApoB/huCETP/mLDLr mouse model (Example 7)
Text: The huApoB^+/−huCETP^+/−mLDLr^+/− mice were divided into five groups of 5-7 mice each. […] The saline-injected group served as the control group to which oligonucleotide-treated groups were compared. […] This group served a negative control for the effects of the antisense oligonucleotides against CETP. The groups are further described in Table 27, and are designated letters A-F, by which they will be referred from henceforth.
HDL and LDL cholesterol were individually measured by HPLC. Triglyceride levels were measured on weeks 0, 3 and 6 with the use of a commercially available triglyceride kit (DCL Triglyceride Reagent; Diagnostic Chemicals Ltd.).

[4] = tested on: ABCA1; assay: Liver ABCA1 mRNA expression (Example 9); details: percentage increase or decrease compared to PBS control, s.c. 6 weeks
Protocol: as §1
Liver RNA was isolated for real-time PCR analysis of ABCA1, ApoAI, and SR-B1. ATP-binding cassette transporter ABCA1 (member 1 of human transporter sub-family ABCA), also known as the cholesterol efflux regulatory protein (CERP) is a protein which in humans is encoded by the ABCA1 gene (Luciani, M. F. et al., Genomics. 1994. 21: 150-9). This transporter is a major regulator of cellular cholesterol and phospholipid homeostasis. Apolipoprotein A-I is a protein that in humans is encoded by the APOA1 gene (Breslow, J. L. et al., Proc. Natl. Acad. Sci. USA 1982. 79: 6861-5). Apolipoprotein A-I is the major protein component of HDL in plasma. The protein promotes cholesterol efflux from tissues to the liver for excretion. Scavenger receptor class B, type I (SR-BI) is an integral membrane protein found in numerous cell types/tissues, including the liver and adrenal (Acton, S. L. et al., J. Biol. Chem. 1994. 269: 21003-21009). It is best known for its role in facilitating the uptake of cholesteryl esters from high-density lipoproteins in the liver. Therefore, all three genes have a role in HDL regulation.
The primer probe set RTS1204 (forward sequence […], designated herein as SEQ ID NO: 122, reverse sequence […], designated herein as SEQ ID NO: 123, probe sequence AGGCCCAGACCTGTAAAGGCGAAGX, with X a fluorophore, designated herein as SEQ ID NO: 124) was used to measure abca1 levels. The primer probe set RTS14737 (forward sequence […], designated herein as SEQ ID NO: 125, reverse sequence […], designated herein as SEQ ID NO: 126, probe sequence CTGCAGGAACGGCTGGGCCCX, with X a fluorophore, designated herein as SEQ ID NO: 127) was used to measure apoA1 levels. The primer probe set mSRB-1 (forward sequence […], designated herein as SEQ ID NO: 128, reverse sequence ATGCGACTTGTCAGGCTGG, designated herein as SEQ ID NO: 129, probe sequence CGTGGAGAACCGCAGCCTCCATTX, with X a fluorophore, designated herein as SEQ ID NO: 130) was used to measure sr-b1 levels. The results are presented in Table 44 as percentage increase or decrease in the respective expression levels compared to the PBS control. Both primer probe sets produced similar results. The RNA expression levels were normalized to murine Cyclophilin. Treatment with ISIS 349517 caused an increase in ApoA1 and SR-B1 levels.

[5] = huApoB+/−huCETP+/−mLDLr+/− mice (Groups B-E), ASO 25 mg/kg s.c. twice/week, Week 0
[6] = huApoB+/−huCETP+/−mLDLr+/− mice (Groups B-E), ASO 25 mg/kg s.c. twice/week, Week 3
[7] = huApoB+/−huCETP+/−mLDLr+/− mice (Groups B-E), ASO 25 mg/kg s.c. twice/week, Week 6
[8] = huApoB+/−huCETP−/−mLDLr+/− mice (Group F), 25 mg/kg s.c. twice/week, Week 0
[9] = huApoB+/−huCETP−/−mLDLr+/− mice (Group F), 25 mg/kg s.c. twice/week, Week 3
[10] = huApoB+/−huCETP−/−mLDLr+/− mice (Group F), 25 mg/kg s.c. twice/week, Week 6

Question: What does the source list for “ISIS 349517: 5-10-5 MOE gapmer CAGCACTTTAATGCCAGTGG (sugars from the 5' end e5 d10 e5, backbone and methylation of C not given here)”?
Answer: HDL cholesterol levels ([1]; 1.5 mg/kg/wk, Week 0): 80 mg/dL; LDL cholesterol levels ([1]; 1.5 mg/kg/wk, Week 0): 58 mg/dL; Total cholesterol levels ([1]; 1.5 mg/kg/wk, Week 0): 154 mg/dL; Triglyceride levels ([1]; 1.5 mg/kg/wk, Week 0): 63 mg/dL; % change in HDL levels compared to total cholesterol ([1]; 1.5 mg/kg/wk, Week 3): 12%; HDL cholesterol levels ([1]; 1.5 mg/kg/wk, Week 3): 117 mg/dL; LDL cholesterol levels ([1]; 1.5 mg/kg/wk, Week 3): 35 mg/dL; Total cholesterol levels ([1]; 1.5 mg/kg/wk, Week 3): 171 mg/dL; Triglyceride levels ([1]; 1.5 mg/kg/wk, Week 3): 50 mg/dL; % change in HDL levels compared to total cholesterol ([1]; 1.5 mg/kg/wk, Week 6): 24%; HDL cholesterol levels ([1]; 1.5 mg/kg/wk, Week 6): 132 mg/dL; LDL cholesterol levels ([1]; 1.5 mg/kg/wk, Week 6): 38 mg/dL; Total cholesterol levels ([1]; 1.5 mg/kg/wk, Week 6): 180 mg/dL; Triglyceride levels ([1]; 1.5 mg/kg/wk, Week 6): 91 mg/dL; HDL cholesterol levels ([1]; 5 mg/kg/wk, Week 0): 88 mg/dL; LDL cholesterol levels ([1]; 5 mg/kg/wk, Week 0): 62 mg/dL; Total cholesterol levels ([1]; 5 mg/kg/wk, Week 0): 164 mg/dL; Triglyceride levels ([1]; 5 mg/kg/wk, Week 0): 57 mg/dL; % change in HDL levels compared to total cholesterol ([1]; 5 mg/kg/wk, Week 3): 11%; HDL cholesterol levels ([1]; 5 mg/kg/wk, Week 3): 130 mg/dL; LDL cholesterol levels ([1]; 5 mg/kg/wk, Week 3): 31 mg/dL; Total cholesterol levels ([1]; 5 mg/kg/wk, Week 3): 172 mg/dL; Triglyceride levels ([1]; 5 mg/kg/wk, Week 3): 51 mg/dL; % change in HDL levels compared to total cholesterol ([1]; 5 mg/kg/wk, Week 6): 23%; HDL cholesterol levels ([1]; 5 mg/kg/wk, Week 6): 151 mg/dL; LDL cholesterol levels ([1]; 5 mg/kg/wk, Week 6): 36 mg/dL; Total cholesterol levels ([1]; 5 mg/kg/wk, Week 6): 202 mg/dL; Triglyceride levels ([1]; 5 mg/kg/wk, Week 6): 85 mg/dL; HDL cholesterol levels ([1]; 15 mg/kg/wk, Week 0): 86 mg/dL; LDL cholesterol levels ([1]; 15 mg/kg/wk, Week 0): 54 mg/dL; Total cholesterol levels ([1]; 15 mg/kg/wk, Week 0): 152 mg/dL; Triglyceride levels ([1]; 15 mg/kg/wk, Week 0): 47 mg/dL; % change in HDL levels compared to total cholesterol ([1]; 15 mg/kg/wk, Week 3): 26%; HDL cholesterol levels ([1]; 15 mg/kg/wk, Week 3): 141 mg/dL; LDL cholesterol levels ([1]; 15 mg/kg/wk, Week 3): 32 mg/dL; Total cholesterol levels ([1]; 15 mg/kg/wk, Week 3): 185 mg/dL; Triglyceride levels ([1]; 15 mg/kg/wk, Week 3): 48 mg/dL; % change in HDL levels compared to total cholesterol ([1]; 15 mg/kg/wk, Week 6): 42%; HDL cholesterol levels ([1]; 15 mg/kg/wk, Week 6): 164 mg/dL; LDL cholesterol levels ([1]; 15 mg/kg/wk, Week 6): 40 mg/dL; Total cholesterol levels ([1]; 15 mg/kg/wk, Week 6): 217 mg/dL; Triglyceride levels ([1]; 15 mg/kg/wk, Week 6): 85 mg/dL; HDL cholesterol levels ([1]; 50 mg/kg/wk, Week 0): 77 mg/dL; LDL cholesterol levels ([1]; 50 mg/kg/wk, Week 0): 59 mg/dL; Total cholesterol levels ([1]; 50 mg/kg/wk, Week 0): 145 mg/dL; Triglyceride levels ([1]; 50 mg/kg/wk, Week 0): 41 mg/dL; % change in HDL levels compared to total cholesterol ([1]; 50 mg/kg/wk, Week 3): 43%; HDL cholesterol levels ([1]; 50 mg/kg/wk, Week 3): 139 mg/dL; LDL cholesterol levels ([1]; 50 mg/kg/wk, Week 3): 33 mg/dL; Total cholesterol levels ([1]; 50 mg/kg/wk, Week 3): 184 mg/dL; Triglyceride levels ([1]; 50 mg/kg/wk, Week 3): 49 mg/dL; % change in HDL levels compared to total cholesterol ([1]; 50 mg/kg/wk, Week 6): 37%; HDL cholesterol levels ([1]; 50 mg/kg/wk, Week 6): 123 mg/dL; LDL cholesterol levels ([1]; 50 mg/kg/wk, Week 6): 38 mg/dL; Total cholesterol levels ([1]; 50 mg/kg/wk, Week 6): 170 mg/dL; Triglyceride levels ([1]; 50 mg/kg/wk, Week 6): 60 mg/dL; Glucose levels ([2]; 1.5 mg/kg/wk, Week 0): 375 mg/dL; Glucose levels ([2]; 1.5 mg/kg/wk, Week 3): 288 mg/dL; Glucose levels ([2]; 1.5 mg/kg/wk, Week 6): 348 mg/dL; Glucose levels ([2]; 5 mg/kg/wk, Week 0): 354 mg/dL; Glucose levels ([2]; 5 mg/kg/wk, Week 3): 287 mg/dL; Glucose levels ([2]; 5 mg/kg/wk, Week 6): 346 mg/dL; Glucose levels ([2]; 15 mg/kg/wk, Week 0): 339 mg/dL; Glucose levels ([2]; 15 mg/kg/wk, Week 3): 271 mg/dL; Glucose levels ([2]; 15 mg/kg/wk, Week 6): 329 mg/dL; Glucose levels ([2]; 50 mg/kg/wk, Week 0): 339 mg/dL; Glucose levels ([2]; 50 mg/kg/wk, Week 3): 269 mg/dL; Glucose levels ([2]; 50 mg/kg/wk, Week 6): 255 mg/dL; % HDL/total cholesterol [3, 5]: 25%; HDL cholesterol levels [3, 5]: 48 mg/dL; LDL cholesterol levels [3, 5]: 116 mg/dL; Total cholesterol levels [3, 5]: 193 mg/dL; Triglyceride levels [3, 5]: 142 mg/dL; % HDL/total cholesterol [3, 6]: 40%; HDL cholesterol levels [3, 6]: 68 mg/dL; LDL cholesterol levels [3, 6]: 87 mg/dL; Total cholesterol levels [3, 6]: 171 mg/dL; Triglyceride levels [3, 6]: 177 mg/dL; % HDL/total cholesterol [3, 7]: 37%; HDL cholesterol levels [3, 7]: 72 mg/dL; LDL cholesterol levels [3, 7]: 109 mg/dL; Total cholesterol levels [3, 7]: 197 mg/dL; Triglyceride levels [3, 7]: 210 mg/dL; % HDL/total cholesterol [3, 8]: 41%; HDL cholesterol levels [3, 8]: 65 mg/dL; LDL cholesterol levels [3, 8]: 73 mg/dL; Total cholesterol levels [3, 8]: 158 mg/dL; Triglyceride levels [3, 8]: 150 mg/dL; % HDL/total cholesterol [3, 9]: 37%; HDL cholesterol levels [3, 9]: 65 mg/dL; LDL cholesterol levels [3, 9]: 91 mg/dL; Total cholesterol levels [3, 9]: 175 mg/dL; Triglyceride levels [3, 9]: 213 mg/dL; % HDL/total cholesterol [3, 10]: 42%; HDL cholesterol levels [3, 10]: 75 mg/dL; LDL cholesterol levels [3, 10]: 95 mg/dL; Total cholesterol levels [3, 10]: 177 mg/dL; Triglyceride levels [3, 10]: 201 mg/dL; Percent inhibition of liver mRNA expression, ABCA1 ([4]; Dose 1.5 mg/kg/wk): +6%; Percent inhibition of liver mRNA expression, ABCA1 ([4]; Dose 5 mg/kg/wk): +15%; Percent inhibition of liver mRNA expression, ABCA1 ([4]; Dose 15 mg/kg/wk): −6%; Percent inhibition of liver mRNA expression, ABCA1 ([4]; Dose 50 mg/kg/wk): −15%

— patent US20130053430A1, “MODULATION OF CETP EXPRESSION” (Isis Pharmaceuticals, Inc., priority 2010, published 2013)
